Source: patent US20080234132A1, “Microcin B17 Analogs And Methods For Their Preparation And Use” (priority 2004, published 2008)
In brackets after ≈: the same amount, converted by molar mass. Like-named read-outs stand apart in the source and are kept apart here. *1 amine or outer side, *2 acyl side, *3 side chain or, on linkers, in order; H or OH if unused. Where a SMILES comes first, the peptide text is derived from it. [ ]: non-standard residue; d: D form. GlyΨ(Thz) = O=C(c1csc(CN[*:1])n1)[*:2]; X1 = O=C(c1ccc(CN[*:1])[nH]1)[*:2]; X3 = O=C(c1coc(CN[*:1])n1)[*:2]

Assays:
[1] = target: T1, DNA gyrase (Escherichia coli, UniProt P0AES4+P0AES6); assay: biochemical; parameters: species or system E. coli; conditions: for IC50 SC gyrase: Table 5-C
[2] = target: T2, Human topoisomerase I (Homo sapiens, UniProt P11387); assay: Human topoisomerase I-mediated relaxation assay; type: biochemical
T2 construct: purchased TopoGEN Inc. (Port Orange, Fla., USA)
T2 sequence (P11387 1-765): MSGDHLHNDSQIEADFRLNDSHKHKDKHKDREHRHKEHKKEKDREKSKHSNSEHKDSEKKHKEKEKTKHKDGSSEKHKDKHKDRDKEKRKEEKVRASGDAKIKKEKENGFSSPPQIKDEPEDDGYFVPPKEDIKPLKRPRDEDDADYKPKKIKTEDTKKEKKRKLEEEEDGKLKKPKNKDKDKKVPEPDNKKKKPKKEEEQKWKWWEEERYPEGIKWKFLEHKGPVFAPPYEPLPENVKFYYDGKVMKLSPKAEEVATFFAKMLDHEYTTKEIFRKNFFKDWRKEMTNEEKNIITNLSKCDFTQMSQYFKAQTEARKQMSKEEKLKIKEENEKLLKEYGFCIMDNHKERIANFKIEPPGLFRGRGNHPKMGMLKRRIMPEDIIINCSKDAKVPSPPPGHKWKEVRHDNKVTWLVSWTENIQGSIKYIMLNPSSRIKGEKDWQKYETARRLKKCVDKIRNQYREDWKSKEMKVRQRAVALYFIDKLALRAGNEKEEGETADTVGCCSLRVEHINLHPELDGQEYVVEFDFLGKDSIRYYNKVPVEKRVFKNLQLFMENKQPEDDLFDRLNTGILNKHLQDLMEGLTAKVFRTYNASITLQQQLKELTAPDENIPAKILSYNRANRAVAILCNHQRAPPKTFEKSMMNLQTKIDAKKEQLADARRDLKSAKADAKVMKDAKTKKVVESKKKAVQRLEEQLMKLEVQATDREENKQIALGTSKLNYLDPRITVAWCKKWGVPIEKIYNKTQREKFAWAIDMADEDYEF
Method: Human topoisomerase I-mediated relaxation assays were performed as per the manufacturer's instructions. Topoisomerase I (2 nM) was added to reactions containing 10 mM of Tris.HCl, pH 7.9, 150 mM NaCl, 100 μM spermidine.HCl, 5% glycerol, 0.1% BSA, 4.6 nM of […] pBR322 DNA, and inhibitor where appropriate.
(§1) All in vitro reactions were incubated at 37° C. for 30 minutes. The DMSO concentration in each reaction was kept constant at 3.33%. Reactions were quenched with the addition of an equal volume of phenol/chloroform/isoamyl alcohol (25:24:1) and one tenth volume of loading buffer containing 40% sucrose, 100 mM Tris.HCl pH 7.5, 100 mM EDTA, 2 mg/mL bromophenol blue. The proteins were precipitated by vortexing, followed by centrifugation for 5 minutes at 16 000 g. The aqueous phase was loaded onto 1% agarose gels in Tris-acetate and were electrophoresed at 60 V for three hours in Tris-acetate buffer. The gels were stained in 1 μg/mL ethidium bromide. The gels were visualised using UV light and were documented and analysed using Syngene software.

[3] = test system: HT-29 cells; assay: cells; type: cell-based, human; conditions: MTT, 24 hours; read-out: In vivo HT29 Cells (approximate IC50)
Method: (§2) Human cell cultures were initiated from frozen cell stocks (the gift of Dr J. Gavrilovic, UEA). The HT-29 line is derived from a colorectal adenocarcinoma while HeLa cells are derived from a cervical epithelial adenocarcinoma (see FIG. 35). Both human cell lines form adherent cultures and were maintained at 37° C. in T25 culture vessels as 10 mL cultures in CO2 Independent Media containing 10% foetal bovine serum (EU approved), 4 mM L-glutamine, penicillin/streptomycin (Invitrogen). A subcultivation ratio of 1:3 and 1:6 were maintained for HT-29 and HeLa lines respectively. Media was renewed every three days.
(§3) The assay to determine the effects of the heterocyclic compounds on mammalian cells is based on the cleavage of the yellow tetrazolium salt MTT to purple formazoan crystals by metabolically active cells (Roche). After incubation with MTT and solubilization, the resulting coloured solution is quantified using a scanning spectrophotometer. Each of the cell lines was trypsinised and resuspended in fresh media prior to transfer to sterile flat-bottomed microtitre plates (200 μL per well) and allowed to recover for 16 hours. Five thousand HT-29 or 7500 HeLa cells per 100 μL culture medium were incubated in the presence of the drugs in various concentrations (totalling 10 μL) for 24 hours. Cell viability was then determined by addition of MTT reagent (20 μL) in each well, as per manufacturer's instructions and incubated for a further 4 hours. Solubilization solution (100 μL) was added per well and the plates incubated overnight at 37° C. The plates were read in a spectrophotometer (scanning from 500-650 nm, signal peak at 570 nm). A representative result is illustrated in FIG. 36.

[4] = test system: HeLa cells; assay: cells; type: cell-based, human; conditions: MTT, 24 hours; read-out: In vivo HeLa Cells (approximate IC50)
Method: as §2, §3

[5] = target: T3, E. coli Topoisomerase IV (Escherichia coli, UniProt P0AFI2+P20083); assay: biochemical; parameters: purchased John Innes Enterprises (Norwich, UK)
T3 sequence (P20083 whole entry): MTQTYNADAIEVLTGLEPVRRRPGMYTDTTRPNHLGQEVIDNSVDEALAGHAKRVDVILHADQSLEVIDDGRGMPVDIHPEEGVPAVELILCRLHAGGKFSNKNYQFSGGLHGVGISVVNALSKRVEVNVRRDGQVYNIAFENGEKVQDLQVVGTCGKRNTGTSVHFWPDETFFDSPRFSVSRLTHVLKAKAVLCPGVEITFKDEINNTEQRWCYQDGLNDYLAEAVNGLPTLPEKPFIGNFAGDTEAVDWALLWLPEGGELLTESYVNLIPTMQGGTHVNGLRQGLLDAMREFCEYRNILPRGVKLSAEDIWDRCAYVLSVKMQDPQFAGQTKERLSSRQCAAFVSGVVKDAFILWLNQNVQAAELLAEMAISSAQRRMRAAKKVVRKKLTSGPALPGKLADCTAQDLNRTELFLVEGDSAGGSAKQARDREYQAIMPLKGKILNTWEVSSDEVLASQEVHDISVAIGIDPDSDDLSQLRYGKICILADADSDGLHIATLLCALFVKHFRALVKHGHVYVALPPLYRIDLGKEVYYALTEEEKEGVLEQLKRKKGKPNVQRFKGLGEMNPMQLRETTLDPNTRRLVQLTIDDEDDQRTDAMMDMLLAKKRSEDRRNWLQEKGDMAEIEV
T3 sequence (P0AFI2 whole entry): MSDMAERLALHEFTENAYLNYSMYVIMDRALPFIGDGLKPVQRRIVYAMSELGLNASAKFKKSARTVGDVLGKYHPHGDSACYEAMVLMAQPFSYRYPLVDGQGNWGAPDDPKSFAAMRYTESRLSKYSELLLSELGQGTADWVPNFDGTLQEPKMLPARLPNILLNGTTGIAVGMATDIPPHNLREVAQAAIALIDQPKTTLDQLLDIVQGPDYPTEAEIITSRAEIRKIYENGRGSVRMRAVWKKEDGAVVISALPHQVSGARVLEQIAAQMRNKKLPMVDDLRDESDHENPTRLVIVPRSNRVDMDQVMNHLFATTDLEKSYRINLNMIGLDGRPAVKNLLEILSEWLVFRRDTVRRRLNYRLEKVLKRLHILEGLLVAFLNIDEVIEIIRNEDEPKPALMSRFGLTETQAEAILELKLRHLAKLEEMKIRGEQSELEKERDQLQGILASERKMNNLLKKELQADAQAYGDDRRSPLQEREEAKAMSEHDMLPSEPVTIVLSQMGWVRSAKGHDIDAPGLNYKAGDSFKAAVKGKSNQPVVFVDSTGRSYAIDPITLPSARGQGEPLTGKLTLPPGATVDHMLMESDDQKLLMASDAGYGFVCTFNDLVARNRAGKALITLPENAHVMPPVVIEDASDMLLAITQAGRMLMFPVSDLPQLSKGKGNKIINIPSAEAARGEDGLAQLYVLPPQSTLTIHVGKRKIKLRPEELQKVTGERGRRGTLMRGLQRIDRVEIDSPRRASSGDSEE
Method: (§5) Topoisomerase IV-mediated relaxation assays and decatenation assays were performed as previously described (see Peng and Marians, 1993). […] Decatenation assays contained topoisomerase IV (4 nM), 40 mM Tris HCl pH 7.5 at 30° C., 6 mM MgCl2, 10 mM DTT, 1 mM spermidine.HCl, 100 mM potassium glutamate, 0.5 mM ATP, 0.5 mg/mL BSA, 200 ng of kinetoplast DNA, and inhibitor where appropriate.

[6] = target: T3, E. coli Topoisomerase IV; assay: biochemical; type: biochemical; parameters: purchased John Innes Enterprises (Norwich, UK)
Method: as §5

[7] = target: T4, Human topoisomerase IIα (Homo sapiens, UniProt P11388); assay: Human Topoisomerase IIα-mediated relaxation assay; type: biochemical; parameters: purchased TopoGEN Inc. (Port Orange, Fla., USA)
T4 sequence (P11388 whole entry): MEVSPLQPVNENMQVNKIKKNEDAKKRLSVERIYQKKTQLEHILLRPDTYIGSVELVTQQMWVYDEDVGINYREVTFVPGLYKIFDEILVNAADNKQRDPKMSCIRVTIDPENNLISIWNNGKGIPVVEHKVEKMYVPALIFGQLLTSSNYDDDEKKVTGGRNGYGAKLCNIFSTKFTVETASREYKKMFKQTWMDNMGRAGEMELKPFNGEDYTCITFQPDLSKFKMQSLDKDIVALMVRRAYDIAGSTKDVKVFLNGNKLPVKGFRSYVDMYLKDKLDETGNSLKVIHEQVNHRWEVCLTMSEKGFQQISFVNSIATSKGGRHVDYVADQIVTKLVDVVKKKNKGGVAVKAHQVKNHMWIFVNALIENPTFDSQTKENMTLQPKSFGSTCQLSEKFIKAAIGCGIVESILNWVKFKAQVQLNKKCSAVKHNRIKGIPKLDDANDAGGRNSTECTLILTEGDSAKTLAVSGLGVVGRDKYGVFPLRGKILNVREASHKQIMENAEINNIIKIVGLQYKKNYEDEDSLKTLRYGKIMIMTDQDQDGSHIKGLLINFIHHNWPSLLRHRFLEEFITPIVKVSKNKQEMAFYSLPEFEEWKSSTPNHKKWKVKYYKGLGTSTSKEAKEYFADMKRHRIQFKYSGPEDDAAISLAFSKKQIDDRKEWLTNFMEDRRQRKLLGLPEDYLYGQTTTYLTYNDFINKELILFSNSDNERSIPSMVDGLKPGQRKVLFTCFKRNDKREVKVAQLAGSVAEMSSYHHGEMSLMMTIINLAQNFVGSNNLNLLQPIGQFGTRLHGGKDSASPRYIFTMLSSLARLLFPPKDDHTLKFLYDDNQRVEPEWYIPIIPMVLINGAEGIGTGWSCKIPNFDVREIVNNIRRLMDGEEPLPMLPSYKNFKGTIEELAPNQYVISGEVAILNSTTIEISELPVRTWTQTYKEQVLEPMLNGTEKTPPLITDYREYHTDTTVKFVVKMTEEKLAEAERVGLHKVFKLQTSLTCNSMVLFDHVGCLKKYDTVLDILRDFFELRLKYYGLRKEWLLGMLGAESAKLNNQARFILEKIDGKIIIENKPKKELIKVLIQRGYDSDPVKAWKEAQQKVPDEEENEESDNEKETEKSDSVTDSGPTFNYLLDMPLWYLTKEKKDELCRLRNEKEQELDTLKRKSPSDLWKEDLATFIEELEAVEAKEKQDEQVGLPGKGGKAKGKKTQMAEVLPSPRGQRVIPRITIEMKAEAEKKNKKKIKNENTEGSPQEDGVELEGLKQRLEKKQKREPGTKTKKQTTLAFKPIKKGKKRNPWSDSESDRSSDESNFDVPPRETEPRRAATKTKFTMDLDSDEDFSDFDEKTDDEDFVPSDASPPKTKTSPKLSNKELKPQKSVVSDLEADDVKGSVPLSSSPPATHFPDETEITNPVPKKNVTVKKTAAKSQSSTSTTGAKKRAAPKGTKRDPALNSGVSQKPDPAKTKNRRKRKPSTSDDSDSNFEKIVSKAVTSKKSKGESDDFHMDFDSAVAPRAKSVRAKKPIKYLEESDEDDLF
Method: (§4) Human Topoisomerase IIα-mediated relaxation assays and decatenation assays were performed as per the manufacturer's instructions in a total of 20 μL. Relaxation assays contained Topoisomerase IIα (4.3 nM), 50 mM Tris.HCl pH 8,120 mM KCl, 10 mM MgCl2, 0.5 mM DTT, 0.5 mM ATP, 4.6 nM of supercoiled pBR322 DNA, and inhibitor where appropriate. Decatenation assays substituted the supercoiled DNA with 200 ng catenated kinetoplast DNA.
as §1

[8] = target: T4, Human topoisomerase IIα; assay: Human Topoisomerase IIα decatenation assay; type: biochemical; parameters: purchased TopoGEN Inc. (Port Orange, Fla., USA)
Method: as §4, §1

[9] = target: DNA gyrase (MG 1655 A2B2) (Escherichia coli, UniProt P0AES4+P0AES6); assay: biochemical; parameters: species or system E. coli
Method: (§6) GyrA and GyrB were added to a solution containing 35 mM Tris.HCl (pH, 7.5), 24 mM KCl, 4 mM MgCl2, 1.8 mM spermidine, 6.5% glycerol, 0.36 mg/mL BSA, 9 μg/mL tRNA, 5 mM DTT, 2 mM ATP and 24 nM relaxed pBR322 DNA. […] The reactions were incubated at 25° C., and at each time point 30-μl aliquots were quenched with 1 μL of 10% SDS. An equal volume of chloroform/isoamyl alcohol (24:1) and a half volume of loading buffer STEB (40% sucrose/100 mM Tris.HCl, pH 7.5/100 mM EDTA/2 mg/ml bromophenol blue) were added, and the mixtures then were vortexed and centrifuged for 1 min at 13,000 rpm. The aqueous phase was loaded onto 1% agarose, TAE (40 mM Tris-acetate, 1 mM EDTA) gels and were run at either 30 V overnight in TAE (in the cold room) or 70 V for 2.5 hours. The gels were stained for about 20 min in TAE containing 1 μg/ml ethidium bromide followed by destaining in multiple washes of TAE.

[10] = target: T1, DNA gyrase; type: biochemical, E. coli; conditions: for Cleavage (IC50 μM): Table 4; for IC50 cleavage: Table 5-C
Method: GyrA and GyrB were added to solutions containing 35 mM Tris.HCl (pH, 7.5), 24 mM KCl, 4 mM MgCl2, 1.8 mM spermidine, 6.5% glycerol, 0.36 mg/mL BSA, 9 μg/mL tRNA, 5 mM DTT, 2 mM ATP and 10 nM relaxed pBR322 DNA. […] The reactions were incubated at 25° C., and at each time point 30-μl aliquots were quenched with 1 μL of 10% SDS and 2 μL of 2 mg/ml proteinase K. Quenched aliquots were kept on ice until the experiment was completed, at which time they were incubated at 37° C. for half an hour. An equal volume of chloroform/isoamyl alcohol (24:1) and a half volume of loading buffer STEB (40% sucrose/100 mM Tris HCl, pH 7.5/1 mM EDTA/2 mg/ml bromophenol blue) were added, and the mixtures then were vortexed and centrifuged for 1 min at 13,000 rpm. The aqueous phase was loaded onto 1% agarose, TAE (40 mM Tris-acetate, 1 mM EDTA) gels that contained 1 μg/ml ethidium bromide and were run at either 30 V overnight in TAE containing 1 μg/ml ethidium bromide (in the cold room) or 70 V for 2.5 hours in TAE containing 1 μg/ml ethidium bromide.

[11] = target: DNA gyrase A2B2 (Escherichia coli, UniProt P0AES4+P0AES6); assay: biochemical; type: biochemical, E. coli
Method: Relaxation assays were performed in a manner analogous to that described by Pierrat et al., 2005. Briefly, relaxation assays were performed as for the supercoiling assay but with some modifications: ATP and spermidine were omitted. Gyr A and Gyr B were added to a solutions containing 35 mM of Tris.HCl (pH=7.5), 24 mM of KCl, 4 mM of MgCl2, 1.8 mg/mL of spermidine, 6.5% of glycerol, 0.36 mg/mL of BSA, 9 μg/mL of tRNA, 5 mM of DTT, 2 mM of ATP and 24 nM of relaxed pBR322 DNA. […] The amount of DMSO was kept constant at 3.33%. The reactions were incubated at 25° C., and at each time point 30 μL aliquots were quenched with the addition of an equal volume of chloroform/isoamyl alcohol (24:1) and a half volume of loading buffer STEB (40% sucrose/100 mM Tris HCl, pH 7.5/100 mM EDTA/2 mg/mL bromophenol blue). The mixtures then were vortexed and centrifuged for 1 minute at 13,000 rpm. The aqueous phase was loaded onto 1% agarose, TAE (40 mM Tris-acetate, 1 mM EDTA) gels and were run at either 30 V overnight in TAE (in the cold room) or 70 V for 2.5 hours in TAE. The gels were stained for about 20 minutes in TAE containing 1 μg/mL ethidium bromide followed by destaining in multiple washes of TAE. The data were analysed using Syngel software.

[12] = target: DNA gyrase MG1655 wild type A2B2 (Escherichia coli, UniProt P0AES4+P0AES6); assay: biochemical; parameters: species or system E. coli; conditions: for ATPase % inhibition at saturation: Table 4
Method: ATP hydrolysis by DNA gyrase was linked to the oxidation of NADH using a pyruvate Kinase (PK)/lactate dehydrogenase (LDH) coupled enzyme assay and measured at 340 nm on a Spectramax Plus Microplate. […] Each 100 μL reaction contained 50 mM Tris.HCl (pH 7.5), 24 mM KCl, 5 mM MgCl2, 6.5% (w/w) glycerol, 4 mM dithiotreitol, 0.4 mM NADH, 0.8 mM phosphorenol-pyruvate, 1% (w/w) PK/LDH mixture (Sigma), 51 nM-153 nM gyrase enzyme and the drug tested at varying concentrations. DMSO was kept constant at 2%. The reactions were measured in the presence or absence of linear DNA pBR322 at fixed concentration of 8.4 nM. Reactions were initiated by the addition of 10 mM Mg.ATP and measured at 25° C. over 1.5 hours.
DNA-dependent ATPase reactions were tested with the wild type enzyme A2B2 and the W751R mutant enzyme. In these DNA-dependent ATPase assays, the concentration of wild type A2B2 is 51 nM, the concentration of W751R mutant enzyme is 106 nM.
Experimental data were fitted and treated with the following equation:
where L represents the inhibitor concentration, v represents the rate of the ATPase reaction, and v0 represents the rate in absence of inhibitor. The IC50 is deduced from the equation 2:

[13] = target: Wheatgerm topoisomerase I (Triticum aestivum, UniProt A0A3B6RK19); assay: Wheatgerm topoisomerase I-mediated relaxation assay; type: biochemical
Sequence of Wheatgerm topoisomerase I (A0A3B6RK19 entry or part of it): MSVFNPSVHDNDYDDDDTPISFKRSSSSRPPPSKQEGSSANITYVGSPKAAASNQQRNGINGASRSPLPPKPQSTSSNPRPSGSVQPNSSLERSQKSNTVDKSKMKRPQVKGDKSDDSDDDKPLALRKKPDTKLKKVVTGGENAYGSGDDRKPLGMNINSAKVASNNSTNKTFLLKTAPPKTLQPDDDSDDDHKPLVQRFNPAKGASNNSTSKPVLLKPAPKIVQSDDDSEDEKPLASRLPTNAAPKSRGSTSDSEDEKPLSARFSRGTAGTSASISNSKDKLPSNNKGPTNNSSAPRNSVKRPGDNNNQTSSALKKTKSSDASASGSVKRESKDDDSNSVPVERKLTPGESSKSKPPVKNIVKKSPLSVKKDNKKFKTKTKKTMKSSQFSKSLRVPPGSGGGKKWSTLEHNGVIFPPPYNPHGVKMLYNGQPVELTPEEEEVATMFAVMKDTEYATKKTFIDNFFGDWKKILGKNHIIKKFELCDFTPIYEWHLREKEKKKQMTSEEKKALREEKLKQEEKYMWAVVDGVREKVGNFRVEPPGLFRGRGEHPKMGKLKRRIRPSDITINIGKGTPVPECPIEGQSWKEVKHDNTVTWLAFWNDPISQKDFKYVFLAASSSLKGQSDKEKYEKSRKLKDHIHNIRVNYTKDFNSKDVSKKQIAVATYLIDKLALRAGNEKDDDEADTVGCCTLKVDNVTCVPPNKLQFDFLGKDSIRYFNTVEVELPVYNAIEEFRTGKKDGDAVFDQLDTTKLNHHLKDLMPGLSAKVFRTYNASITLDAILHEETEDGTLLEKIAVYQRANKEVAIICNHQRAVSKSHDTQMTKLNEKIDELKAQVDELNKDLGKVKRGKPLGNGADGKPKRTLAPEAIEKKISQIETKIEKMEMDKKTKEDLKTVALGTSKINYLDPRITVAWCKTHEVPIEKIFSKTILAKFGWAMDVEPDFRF
Method: Wheatgerm topoisomerase I-mediated relaxation assays were performed as per the manufacturer's instructions. Topoisomerase I (2 nM) was added to reactions containing 50 mM Tris. HCl pH 7.5, 50 mM NaCl, 0.1 mM EDTA, 1 mM DTT, 20% glycerol, 4.6 nM of […] pBR322 DNA, and inhibitor where appropriate.
as §1

[14] = target: DNA gyrase W751R mutant A2B2 (Escherichia coli, UniProt P0AES4+P0AES6, W751R); type: biochemical, E. coli
Method: ATP hydrolysis by DNA gyrase was linked to the oxidation of NADH using a pyruvate Kinase (PK)/lactate dehydrogenase (LDH) coupled enzyme assay and measured at 340 nm on a Spectramax Plus Microplate. […] DMSO was kept constant at 2%.
DNA-dependent ATPase reactions were tested with the wild type enzyme A2B2 and the W751R mutant enzyme.

[15] = test system: A. thaliana ecotype Columbia seeds; assay: Seed germination of A. thaliana; type: in vivo, Arabidopsis thaliana; conditions: 36 hours; 100 μM Peptide 1; 5 μM CFX
Method: The microcin derivatives were tested for efficacy in planta against Arabidopsis thaliana ecotype Columbia according to known methods (see Wall et al., 2004).

[16] = test system: pBR322 DNA
Method: Other compounds like Ethidium Bromide (EtBr), MccB17 and Ciprofloxacin (CFX) were also tested as controls. In this assay, negatively supercoiled pBR322 was relaxed by topoisomerase I in the presence or the absence of the putative DNA intercalative compound. […] Sample reactions were performed in the same buffer used for the DNA relaxation of DNA gyrase (Pierrat & Maxwell, 2003). […] In one set of reactions, negatively supercoiled pBR322 DNA was relaxed at 37° C. for 30 minutes, then intercalative agent was added, i.e., the substrate of the assay was relaxed. In a second set of reactions, the intercalative agent was incubated with the DNA in reaction buffer at 37° C. for 15 minutes prior to the addition of topoisomerase I, i.e., the substrate of the assay was negatively supercoiled. […] Samples were incubated for 60 minutes at 37° C., followed by treatment with 1% SDS and 0.3 mg/mL proteinase K at 37° C. for 30 minutes. Reactions were terminated and samples were prepared for agarose gel electrophoresis as previously described (Heddle et al., 2001). Each reaction product was separated on 1% agarose gel, followed by staining in 1 μg/mL ethidium bromide.

[17] = target: DNA gyrase W751R A2B2 (Escherichia coli, UniProt P0AES4+P0AES6, W751R); assay: Supercoiling in vitro assay, W751R mutant enzyme; type: biochemical, E. coli
Method: as §6

[18] = Solubility
[19] = Topo IIα Human, R (relaxation reaction) IC50
[20] = Supercoiling (IC50 μM) MG 1655 A2B2, Table 4

Structure (SMILES) | IC50 [1] [µM] | IC50 [2] [µM] | IC50 [3] [µM] | IC50 [4] [µM] | IC50 [5] [µM] | IC50 [7, 19] [µM] | IC50 [8] [µM] | Cleavage (IC50 μM) [10] | IC50 [11] [µM] | Topo I Human IC50 [2] | Topo IV, D (decatenation reaction) IC50 [6] | Topo IIα Human, D (decatenation reaction) IC50 [8] | further results
CC(C)(C)OC(=O)NCc1nc(C(=O)O)cs1 [Peptide 5] | 75 | 40 | ~15 | ~75 | > 75 | 15 | < 5 |  |  |  |  |  | IC50 [6]: 20 µM
CC(C)(C)OC(=O)NCc1nc(-c2nc(C(=O)O)co2)cs1 [#8] |  |  |  |  |  |  |  |  |  |  |  |  | IC50 SC gyrase [1]: Inactive
CC(NC(=O)CNC(=O)CNC(=O)c1csc(CNC(=O)C(C)NC(=O)CNC(=O)C(N)CCC(N)=O)n1)C(=O)O (stereo not drawn) [Peptide 5] (H-QGA[GlyΨ(Thz)]GGA-OH; configuration not given here) |  |  |  |  | < 10 | < 20 |  | inactive | 15 | inhibited | exquisitely sensitive | exquisitely sensitive | IC50 [9, 20]: 15 µM; IC50 [12]: 15 µM; ATPase % inhibition at saturation [12]: 40%; Topo I Wheatgerm IC50 [13]: inhibited
O=C(O)c1cn(C2CC2)c2cc(N3CCNCC3)c(F)cc2c1=O [Ciprofloxacin, reference compound] |  |  |  |  |  |  |  |  |  |  |  |  | inhibition of DNA-dependent ATPase of wild type enzyme ([12]; FIG. 18, 0.5 and 1.0 μM): slow down; inhibition of DNA-independent ATPase of wild type enzyme ([12]; FIG. 18, no DNA): does not inhibit; inhibition of DNA-independent ATPase of W751R mutant enzyme ([14]; FIG. 18, no DNA): does not inhibit; inhibition of DNA-dependent ATPase of W751R mutant A2B2 ([14]; W751R enzyme 106 nM, + DNA): slow down; germination of A. thaliana ecotype Columbia seeds [15]: growth is inhibited immediately after germination; concentration producing a weak intercalative property [16]: 50 µM
CC(C)(C)OC(=O)NCc1nc(-c2nc(C(=O)O)cs2)co1 [#7] |  |  |  |  |  |  |  |  |  |  |  |  | IC50 SC gyrase [1]: Inactive
CC(C)(C)OC(=O)NCc1nc(C(=O)O)cs1 [#5] |  |  |  |  |  |  |  |  |  | only inhibited human topoisomerase I | exquisitely sensitive | exquisitely sensitive | IC50 ([7]; read-out: Topo IIα Human, R (relaxation reaction) IC50): < 20 µM
C[C@H](NC(=O)CNC(=O)CNC(=O)c1coc(CNC(=O)[C@H](C)NC(=O)CNC(=O)[C@@H](N)CCC(N)=O)n1)C(=O)O [Peptide 4] (H-QGA[X3]GGA-OH) | 400 | > 300 | > 75 | > 75 | > 300 | 225 | < 50 |  |  |  |  |  | IC50 cleavage [10]: No; IC50 [6]: 175 µM
CC(NC(=O)CNC(=O)CNC(=O)c1ccc(CNC(=O)C(C)NC(=O)CNC(=O)C(N)CCC(N)=O)[nH]1)C(=O)O (stereo not drawn) [Peptide 1] (H-QGA[X1]GGA-OH; configuration not given here) |  |  |  |  | < 10 | < 20 |  | inactive | 68 | inhibited | exquisitely sensitive | exquisitely sensitive | IC50 [9, 20]: 68 µM; IC50 ([9]; inhibition of supercoiling IC50, [A2B2] 13.2 nM, incubated up to 4 h): < 75 µM; IC50 [17]: > 200 µM; IC50 [12]: 37 µM; ATPase % inhibition at saturation [12]: 15%; Topo I Wheatgerm IC50 [13]: inhibited; times more soluble than MccB17 [18]: at least 20 times; solubility ([18]; water with 2% DMSO): 1000 µM (≈ 582 µg/mL)
C[C@H](NC(=O)CNC(=O)CNC(=O)c1csc(CNC(=O)[C@H](C)NC(=O)CNC(=O)[C@@H](N)CCC(N)=O)n1)C(=O)O [Peptide 5] (H-QGA[GlyΨ(Thz)]GGA-OH) | 25 | 25 | ~15 | ~75 |  | 7 | < 2.5 |  | 40 |  |  |  | IC50 cleavage [10]: No
CC(NC(=O)CNC(=O)CNC(=O)c1coc(CNC(=O)C(C)NC(=O)CNC(=O)C(N)CCC(N)=O)n1)C(=O)O (stereo not drawn) [Peptide 4] (H-QGA[X3]GGA-OH; configuration not given here) |  |  |  |  |  | 225 |  | inactive |  |  |  |  | Supercoiling (IC50 μM) MG 1655 A2B2 ([9]; Table 4): Slow
